# Reference: the NIST ThermoML archive (doi:10.1016/j.jct.2013.02.013)
# Numbers after ± are expanded uncertainties.
# Key:
# [1] = Molar enthalpy of transition or fusion; conditions: Crystal; DSC
# [2] = Crystal; DTA
compound,measurement,setting,value
O=C(O)C=Cc1ccc(O)cc1 [3-(4-hydroxyphenyl)-2-propenoic acid],Molar enthalpy of transition or fusion,[1],6.55 ± 0.956 kcal/mol
same,Normal melting temperature,[2],219.20 ± 1 °C
